Experimental data as given in US20230090552A1, “ALK5 INHIBITOR CONJUGATES AND USES THEREOF” (Synthis Therapeutics, Inc., priority 2020, published 2023).

How the values were obtained:
[1] = system: IPF disease progression; details: patients with mild-moderate disease; cited from earlier work
[2] = target: T1, ALK5 (Homo sapiens, UniProt P36897); test: recombinant kinase assays (IC50 and Ki); type: biochemical; details: versus Compound N
T1 sequence (P36897 34-503): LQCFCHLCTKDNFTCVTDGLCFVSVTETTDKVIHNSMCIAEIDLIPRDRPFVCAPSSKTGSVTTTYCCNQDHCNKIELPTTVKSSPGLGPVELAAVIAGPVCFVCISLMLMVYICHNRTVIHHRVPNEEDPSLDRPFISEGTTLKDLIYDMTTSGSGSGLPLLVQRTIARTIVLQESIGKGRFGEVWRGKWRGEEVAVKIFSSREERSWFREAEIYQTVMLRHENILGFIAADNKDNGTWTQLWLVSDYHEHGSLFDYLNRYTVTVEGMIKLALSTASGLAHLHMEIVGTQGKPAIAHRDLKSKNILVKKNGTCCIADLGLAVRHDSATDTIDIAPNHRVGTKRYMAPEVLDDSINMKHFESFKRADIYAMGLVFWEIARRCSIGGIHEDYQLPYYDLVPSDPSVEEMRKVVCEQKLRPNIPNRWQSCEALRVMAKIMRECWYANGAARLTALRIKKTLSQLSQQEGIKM
Text: Compound N was compared to Compound C in a number of in vitro assays.

Compound	reduced risk of IPF disease progression [1] [%]	fold more potent than Compound N in the kinase assays [2] [fold]
Cc1ccc(=O)n(-c2ccccc2)c1 [pirfenidone]	50	
COC(=O)c1ccc2c(c1)NC(=O)/C2=C(\Nc1ccc(N(C)C(=O)CN2CCN(C)CC2)cc1)c1ccccc1 [nintedanib]	50	
CNCCOc1ccc(-c2cc(-c3c[nH]nc3-c3cccc(C)n3)ccn2)cc1 [Compound C, N-methyl-2-(4-(4-(3-(6-methylpyridin-2-yl)-1H-pyrazol-4-yl)pyridin-2-yl)phenoxy)ethan-1-amine]		10
